Our source for the IC50 values is US9918990B2, “Substituted pyrrolo[2,3-c]pyridines and pyrazolo[3,4-c]pyridines as BET protein inhibitors” (Incyte Corporation, priority 2013, dated 2018).

One assay addresses BRD4-BD1 (Homo sapiens (Human), UniProt O60885). Kind of assay: BRD4 AlphaScreen assay, BRD4-BD1. In kind it is binding. The settings on record: H4Ac4 peptide, 75 min, room temperature, read-out: BRD4 BD-1 enzyme IC50. As for the experimental part:
(§1) BRD4-BD1 and BRD4-BD2 assays were conducted in white 384-well polystyrene plate in a final volume of 20 μL for BD1 and 40 μL for BD2. Inhibitors were first serially diluted in DMSO and added to the plate wells before the addition of other reaction components. […] After plate sealing, the plate was incubated in the dark at room temperature for 75 min. before reading on a PHERAstar FS plate reader (BMG Labtech). IC50 determination was performed by fitting the curve of percent control activity versus the log of the inhibitor concentration using the GraphPad Prism 5.0 software.

A further assay deals with BRD4-BD2 (Homo sapiens (Human), UniProt O60885). Kind of assay: BRD4 AlphaScreen assay, BRD4-BD2. The settings on record: H4Ac4 peptide, 75 min, room temperature, read-out: BRD4 BD-2 enzyme IC50. In kind it is binding. Here is the method:
as §1
Background: Alpha assays give light when donor and acceptor beads are brought close together.

A further assay has as its system KMS.12.BM cells. Kind of assay: KMS.12.BM cell viability assay (Cell Titer-GLO, ATP quantitation). In kind it is cell-based. The settings on record: Homo sapiens, 72 h, 3 days, concentration required for 50% cell death, read-out: KMS cellular IC50. As for the experimental part: KMS.12.BM cell line (human myeloma) was purchased from JCRB (Osaka, Japan) and maintained in RPMI with 10% FBS culture medium. To measure the cytotoxic activity of the compounds through ATP quantitation, the KMS.12.BM cells are plated in the RPMI culture medium at 5000 cells/well/per 100 μL into a 96-well polystyrene clear black tissue culture plate (Greiner-bio-one through VWR, NJ), in the presence or absence of a concentration range of test compounds. After 3 days, […] Cell Titer-GLO Luminescent (Promega, Madison, Wis.) cell culture agent is added to each well for 10 minutes at room temperature to stabilize the luminescent signal. This determines the number of viable cells in culture based on quantitation of the ATP present, which signals the presence of metabolically active cells. Luminescence is measured with the Top Count 384 (Packard Bioscience through Perkin Elmer, Boston, Mass.). Compound inhibition is determined relative to cells cultured with no drug and the IC50 is reported as the compound concentration required for 50% cell death. IC50 data for the Examples is presented in Table 9 as determined by Assay B1.
Background: In ATP-based viability assays light output follows the ATP content of the culture.

Where a name gives a salt, the structure may show the parent alone. Bounds are passed on as bounds.

Take `Cn1cc(-c2ccc3[nH]c(=O)[nH]c3c2OC2CCC(F)(F)CC2)c2cc[nH]c2c1=O` [Example 23, 4-[(4,4-Difluorocyclohexyl)oxy]-5-(6-methyl-7-oxo-6,7-dihydro-1H-pyrrolo[2,3-c]pyridin-4-yl)-1,3-dihydro-2H-benzimidazol-2-one]: the values for the IC50 on BRD4-BD1, at BRD4-BD2 and in the assay with KMS.12.BM cells were under 100 nM, under 100 nM and at most 1000 nM, respectively.
On to `CN(C)C(=O)Cn1cnc2ccc(-c3cn(C)c(=O)c4[nH]ccc34)c(Oc3ccc(F)cc3F)c21` [Example 33, 2-[7-(2,4-Difluorophenoxy)-6-(6-methyl-7-oxo-6,7-dihydro-1H-pyrrolo[2,3-c]pyridin-4-yl)-1H-benzimidazol-1-yl]-N,N-dimethylacetamide], for which the half-maximal inhibitory concentration (IC50) (as a rule, the concentration that gives 50% inhibition) was under 100 nM at BRD4-BD1, under 100 nM on BRD4-BD2 and at most 1000 nM in the assay with KMS.12.BM cells.
Consider `CNC(=O)Cn1cnc2ccc(-c3cn(C)c(=O)c4[nH]ccc34)c(Oc3ccc(F)cc3F)c21` [Example 35, 2-[7-(2,4-Difluorophenoxy)-6-(6-methyl-7-oxo-6,7-dihydro-1H-pyrrolo[2,3-c]pyridin-4-yl)-1H-benzimidazol-1-yl]-N-methylacetamide], for which the values for the IC50 on BRD4-BD1, on BRD4-BD2 and in the assay with KMS.12.BM cells were under 100 nM, under 100 nM and at most 1000 nM, respectively.
As to `COc1c(-c2cn(C)c(=O)c3[nH]ccc23)ccc2c1n(Cc1ccccc1)c(=O)n2C` [Example 44, 3-Benzyl-4-methoxy-1-methyl-5-(6-methyl-7-oxo-6,7-dihydro-1H-pyrrolo[2,3-c]pyridin-4-yl)-1,3-dihydro-2H-benzimidazol-2-one], the half-inhibitory concentration (IC50) is under 100 nM on BRD4-BD1, under 100 nM on BRD4-BD2 and at most 1000 nM with KMS.12.BM cells.
As for `COc1c(-c2cn(C)c(=O)c3[nH]ccc23)ccc2c1n(CCc1ccccc1)c(=O)n2C` [Example 49, 4-Methoxy-1-methyl-5-(6-methyl-7-oxo-6,7-dihydro-1H-pyrrolo[2,3-c]pyridin-4-yl)-3-(2-phenylethyl)-1,3-dihydro-2H-benzimidazol-2-one], the half-maximal inhibitory concentration (IC50) at BRD4-BD1 is 100 to 1000 nM; on BRD4-BD2, under 100 nM; with KMS.12.BM cells, at most 1000 nM.
Consider `COc1c(-c2cn(C)c(=O)c3[nH]ccc23)ccc2c1n(CCN1CCOCC1)c(=O)n2C` [Example 50, 4-Methoxy-1-methyl-5-(6-methyl-7-oxo-6,7-dihydro-1H-pyrrolo[2,3-c]pyridin-4-yl)-3-(2-morpholin-4-ylethyl)-1,3-dihydro-2H-benzimidazol-2-one], for which the values for the half-inhibitory concentration (IC50) on BRD4-BD1 and on BRD4-BD2 were 100 to 1000 nM and under 100 nM, respectively.
For the compound `Cn1cc(-c2ccc3c(c2OCC2CCC2)n(CCc2ccccc2)c(=O)n3C)c2cc[nH]c2c1=O` [Example 63, 4-(Cyclobutylmethoxy)-1-methyl-5-(6-methyl-7-oxo-6,7-dihydro-1H-pyrrolo[2,3-c]pyridin-4-yl)-3-(2-phenylethyl)-1,3-dihydro-2H-benzimidazol-2-one], the half-inhibitory concentration (IC50) is under 100 nM at BRD4-BD1, under 100 nM at BRD4-BD2 and at most 1000 nM with KMS.12.BM cells.
`Cn1cc(-c2ccc3c(c2OCC2CCC2)n(CCC2CCNCC2)c(=O)n3C)c2cc[nH]c2c1=O` [Example 65, 4-(Cyclobutylmethoxy)-1-methyl-5-(6-methyl-7-oxo-6,7-dihydro-1H-pyrrolo[2,3-c]pyridin-4-yl)-3-(2-piperidin-4-ylethyl)-1,3-dihydro-2H-benzimidazol-2-one]: the values for the IC50 at BRD4-BD1, on BRD4-BD2 and in the assay with KMS.12.BM cells were under 100 nM, under 100 nM and 1000 to 10000 nM, respectively.
With `Cn1cc(-c2ccc3c(c2OCC2CCC2)n(CCN2CCN(S(C)(=O)=O)CC2)c(=O)n3C)c2cc[nH]c2c1=O` [Example 67, 4-(Cyclobutylmethoxy)-1-methyl-5-(6-methyl-7-oxo-6,7-dihydro-1H-pyrrolo[2,3-c]pyridin-4-yl)-3-{2-[4-(methylsulfonyl)piperazin-1-yl]ethyl}-1,3-dihydro-2H-benzimidazol-2-one], the IC50 at BRD4-BD1 was under 100 nM; at BRD4-BD2 it was under 100 nM; in the assay on KMS.12.BM cells, at most 1000 nM.
For the compound `C[C@@H]1CN(CCn2c(NCc3ccccc3)nc3c(Oc4ccccc4)c(-c4cn(C)c(=O)c5[nH]ccc45)ccc32)C[C@H](C)O1` [Example 71, 4-(2-(Benzylamino)-1-{2-[(2R,6S)-2,6-dimethylmorpholin-4-yl]ethyl}-4-phenoxy-1H-benzimidazol-5-yl)-6-methyl-1,6-dihydro-7H-pyrrolo[2,3-c]pyridin-7-one trifluoroacetate], the IC50 on BRD4-BD1 and at BRD4-BD2 was 1000 to 10000 nM in each case.
Take `C[C@@H]1CN(CCn2c(NCC3CC3)nc3c(Oc4ccccc4)c(-c4cn(C)c(=O)c5[nH]ccc45)ccc32)C[C@H](C)O1` [Example 72, 4-(2-[(Cyclopropylmethyl)amino]-1-{2-[(2R,6S)-2,6-dimethylmorpholin-4-yl]ethyl}-4-phenoxy-1H-benzimidazol-5-yl)-6-methyl-1,6-dihydro-7H-pyrrolo[2,3-c]pyridin-7-one trifluoroacetate]: the IC50 was 100 to 1000 nM on BRD4-BD1, under 100 nM at BRD4-BD2 and 1000 to 10000 nM with KMS.12.BM cells.
For `CCOc1c(-c2cn(C)c(=O)c3[nH]ccc23)c(C)nc2cc(C)nn12` [Example 73, 4-(7-Ethoxy-2,5-dimethylpyrazolo[1,5-a]pyrimidin-6-yl)-6-methyl-1,6-dihydro-7H-pyrrolo[2,3-c]pyridin-7-one], the IC50 lay in the range of 1000 to 10000 nM at BRD4-BD1 and 100 to 1000 nM on BRD4-BD2.
Regarding `Cn1cc(-c2cc(CNCCN3CCOCC3)c3[nH]c(=O)[nH]c3c2Oc2ccc(F)cc2F)c2cc[nH]c2c1=O` [Example 79, 4-(2,4-Difluorophenoxy)-5-(6-methyl-7-oxo-6,7-dihydro-1H-pyrrolo[2,3-c]pyridin-4-yl)-7-{[(2-morpholin-4-ylethyl)amino]methyl}-1,3-dihydro-2H-benzimidazol-2-one], the IC50 at BRD4-BD1 was 100 to 1000 nM; at BRD4-BD2 it was under 100 nM; in the assay on KMS.12.BM cells it was 1000 to 10000 nM.
`Cn1cc(-c2cc(CNCc3ccccc3)c3[nH]c(=O)[nH]c3c2Oc2ccc(F)cc2F)c2cc[nH]c2c1=O` [Example 80, 7-[(Benzylamino)methyl]-4-(2,4-difluorophenoxy)-5-(6-methyl-7-oxo-6,7-dihydro-1H-pyrrolo[2,3-c]pyridin-4-yl)-1,3-dihydro-2H-benzimidazol-2-one]: the half-inhibitory concentration (IC50) at BRD4-BD1 was under 100 nM; at BRD4-BD2, under 100 nM; in the assay on KMS.12.BM cells it was at most 1000 nM.
With `Cn1cnc2c(Oc3ccc(F)cc3F)c(-c3c[nH]c(=O)c4[nH]ccc34)ccc21` [Example 82, 4-[4-(2,4-Difluorophenoxy)-1-methyl-1H-benzimidazol-5-yl]-1,6-dihydro-7H-pyrrolo[2,3-c]pyridin-7-one], the IC50 on BRD4-BD1 and at BRD4-BD2 was 100 to 1000 nM each time.
Consider `Cn1cnc2c(Oc3ccc(F)cc3F)c(-c3cn(Cc4ccccc4)c(=O)c4[nH]ccc34)ccc21` [Example 84, 6-Benzyl-4-[4-(2,4-difluorophenoxy)-1-methyl-1H-benzimidazol-5-yl]-1,6-dihydro-7H-pyrrolo[2,3-c]pyridin-7-one trifluoroacetate], for which the IC50 at BRD4-BD1 was 1000 to 10000 nM; at BRD4-BD2 it was 100 to 1000 nM.
Regarding `Cn1cnc2c(Oc3ccc(F)cc3F)c(-c3cn(CC#N)c(=O)c4[nH]ccc34)ccc21` [Example 85, {4-[4-(2,4-Difluorophenoxy)-1-methyl-1H-benzimidazol-5-yl]-7-oxo-1,7-dihydro-6H-pyrrolo[2,3-c]pyridin-6-yl}acetonitrile trifluoroacetate], the values for the half-maximal inhibitory concentration (IC50) on BRD4-BD1 and at BRD4-BD2 were 1000 to 10000 nM and 100 to 1000 nM, respectively.
With `CCS(=O)(=O)c1c(-c2cn(C)c(=O)c3[nH]ccc23)ccc2c1[nH]c(=O)n2C` [Example 99, 4-(Ethylsulfonyl)-1-methyl-5-(6-methyl-7-oxo-6,7-dihydro-1H-pyrrolo[2,3-c]pyridin-4-yl)-1,3-dihydro-2H-benzimidazol-2-one], the half-inhibitory concentration (IC50) lay within 1000 to 10000 nM at BRD4-BD1 and 100 to 1000 nM at BRD4-BD2.
On the same counts, the results for `Cn1cc(-c2ccc3c(c2Oc2ccccc2)N(Cc2ccccc2)C(=O)CO3)c2cc[nH]c2c1=O` [Example 101, 4-Benzyl-6-(6-methyl-7-oxo-6,7-dihydro-1H-pyrrolo[2,3-c]pyridin-4-yl)-5-phenoxy-2H-1,4-benzoxazin-3(4H)-one] are 100 to 1000 nM and 100 to 1000 nM.
On the same counts, the results for `Cn1cc(-c2ccc3c(c2Oc2ccccc2)N(CCN2CCOCC2)C(=O)CO3)c2cc[nH]c2c1=O` [Example 102, 6-(6-Methyl-7-oxo-6,7-dihydro-1H-pyrrolo[2,3-c]pyridin-4-yl)-4-(2-morpholin-4-ylethyl)-5-phenoxy-2H-1,4-benzoxazin-3(4H)-one trifluoroacetate] are 100 to 1000 nM and under 100 nM.
Turning to `Cn1cc(-c2ccc3c(c2Oc2ccccc2)NC(c2ccccc2)CO3)c2cc[nH]c2c1=O` (centres unmarked) [Example 110, 6-Methyl-4-(5-phenoxy-3-phenyl-3,4-dihydro-2H-1,4-benzoxazin-6-yl)-1,6-dihydro-7H-pyrrolo[2,3-c]pyridin-7-one], the 50% inhibitory concentration (IC50) at BRD4-BD1 was 100 to 1000 nM; on BRD4-BD2 it was under 100 nM.
